Assay results: patent US20220153732A1, “PROTEIN SECRETION INHIBITORS” (KEZAR LIFE SCIENCES, priority 2019, published 2022)
Where two headings read alike, the source gives them in different places.

Columns and labels:
Format in all cases: cell-based
[1] = system: human multiple myeloma cell line U266B1; test: U266 Cell Viability Assay; conditions: read-out: 48 hr U266 Viability Celltiter-Glo: Mean EC50
Experimental: Cells were plated in 384-well tissue culture plates and treated with compound dilutions in DMSO/media. Plates were incubated at 37° C., 5% CO2 for 48 hours. After 48 hours, Celltiter-Glo® (Promega) was added to each well and luciferase signal was quantified using Tecan Infinite M1000 Pro for cell viability determination.
(§1) For chemical structures that include one or more stereoisomers, but are illustrated without indicating stereochemistry, the assay data refers to a mixture of stereoisomers.

[2] = system: TNFα-FL/Gaussia Luciferase; test: Dox Induced TNFα-FL-Gluc Assay; conditions: 293FRT/TO cells, read-out: 24 hr Dox Inducible TNFaFLGluc 293FRT/TO: Mean IC50
Experimental: (§2) Transfected cells were selected for resistance to the selectable markers Hygromycin and Blasticidin to create a stable cell line that contained the TNFα-FL/Gaussia Luciferase cDNA insert whose expression was regulated under the T-RExTM system. The day before assay, cells were trypsinized and plated in 384-well tissue culture plates. The next day, compound dilutions in DMSO/media containing doxycycline were added to the wells and incubated at 37° C., 5% CO2. […] For chemical structures that include one or more stereoisomers, but are illustrated without indicating stereochemistry, the assay data refers to a mixture of stereoisomers.

[3] = system: HER3-ss+4aa/Gaussia Luciferase; test: Dox-Induced Her3-ss-Gluc Assay; conditions: 293FRT/TO cells, read-out: 24 hr Dox Inducible Her3(ss + 4)Gluc 293FRT/TO: Mean IC50
Experimental: (§3) Transfected cells were selected for resistance to the selectable markers Hygromycin and Blasticidin to create a stable cell line that contained the HER3-ss+4aa/Gaussia Luciferase cDNA insert whose expression was regulated under the T-REx™ system. The day before assay, cells were trypsinized and plated in 384-well tissue culture plates. The next day, compound dilutions in DMSO/media containing doxycycline were added to the wells and incubated at 37° C., 5% CO2.
as §1

[4] = system: PD1-ss+10aa/Gaussia Luciferase; test: Dox-Induced PD1-ss-Gluc Assay; conditions: 293FRT/TO cells, read-out: 24 hr Dox Inducible PD1ssGluc 293FRT/TO: Mean IC50
Experimental: as §3, with “PD1-ss+10aa/Gaussia” for “HER3-ss+4aa/Gaussia”
as §1

[5] = system: IL-2-FL/Gaussia Luciferase; test: Dox Induced IL2-FL-Gluc Assay; conditions: 293FRT/TO cells, read-out: 24 hr Dox Inducible IL2FLGIuc 293FRT/TO: Mean IC50
Experimental: as §2, with “IL-2-FL/Gaussia” for “TNFα-FL/Gaussia”

[6] = system: human multiple myeloma cell line NCI-H929; test: H929 Cell Viability Assay; conditions: read-out: 48 hr H929 Viability Celltiter-Glo: Mean EC50
Experimental: Plates were incubated at 37° C., 5% CO2 for 48 hours. After 48 hours, Celltiter-Glo® (Promega) was added to each well and luciferase signal was quantified using Tecan Infinite M1000 Pro for cell viability determination.
as §1

[7] = U-266, 48 hr, U266B1 cells, Celltiter-Glo
[8] = 24 hr doxycycline induction, Gaussia luciferase signal
[9] = 48 hr, NCI-H929 cells, Celltiter-Glo

EC50 [1, 7]	IC50 [2, 8]	IC50 [3, 8]	IC50 [4, 8]	IC50 [5, 8]	EC50 [6, 9]	IC50 ([3]; 24 hr, doxycycline-induced)	SMILES	IC50 ([2]; 24 hr, doxycycline-induced)	IC50 ([4]; 24 hr, doxycycline-induced)	IC50 ([5]; 24 hr, doxycycline-induced)	EC50 ([1]; U-266, 48 h)	EC50 ([6]; NCI-H929, 48 h)
> 25 µM	22.3 µM	2.55 µM	0.363 µM	3.74 µM	23.9 µM	–	O=C(Nc1nc(/C=C/c2cnc3c(c2)OCO3)cs1)c1cccn1Cc1ccncc1 [Compound A274]	–	–	–	–	–
17.4 µM	1.43 µM	0.225 µM	0.081 µM	0.648 µM	17.7 µM	–	O=C(Nc1nc(/C=C/C2=CCCCC2)cs1)c1cccn1Cc1ccncc1 [Compound A244, N-(4-(2-(cyclohex-1-en-1-yl)vinyl)thiazol-2-yl)-1-(pyridin-4-ylmethyl)-1H-pyrrole-2-carboxamide]	–	–	–	–	–
> 25 µM	20.3 µM	1.57 µM	0.013 µM	2.92 µM	> 21.6 µM	–	COc1ccc(/C=C/c2csc(NC(=O)c3cccn3Cc3ccncc3)n2)nc1 [Compound A269, N-(4-(2-(5-methoxypyridin-2-yl)vinyl)thiazol-2-yl)-1-(pyridin-4-ylmethyl)-1H-pyrrole-2-carboxamide]	–	–	–	–	–
> 25 µM	> 25 µM	> 25 µM	14.7 µM	> 25 µM	> 25 µM	–	O=C(Nc1nc2c(s1)COCC2)c1cccn1Cc1ccncc1 [Compound A95]	–	–	–	–	–
> 25 µM	19.1 µM	1.92 µM	1.38 µM	1.2 µM	17.3 µM	–	CC(C)OC(C)(C)c1csc(NC(=O)c2cccn2Cc2ccc([N+](=O)[O-])cc2)n1 [Compound A53, N-(4-(2-isopropoxypropan-2-yl)thiazol-2-yl)-1-(4-nitrobenzyl)-1H-pyrrole-2-carboxamide]	–	–	–	–	–
10.9 µM	2.87 µM	0.523 µM	0.134 µM	1.07 µM	5.28 µM	–	O=C(Nc1nc(/C=C/c2ccccc2Cl)cs1)c1cccn1Cc1ccncc1 [Compound A161, N-(4-(2-chlorostyryl)thiazol-2-yl)-1-(pyridin-4-ylmethyl)-1H-pyrrole-2-carboxamide]	–	–	–	–	–
> 25 µM	–	–	–	–	2.77 µM	0.054 µM	O=C(Nc1nc([C@H]2CCC[C@H]2c2ccccc2)cs1)c1cccn1Cc1ccncc1 [Compound A301, N-(4-((1S,2R)-2-phenylcyclopentyl)thiazol-2-yl)-1-(pyridin-4-ylmethyl)-1H-pyrrole-2-carboxamide]	0.242 µM	0.043 µM	0.064 µM	–	–
> 25 µM	> 25 µM	> 25 µM	> 25 µM	> 25 µM	> 25 µM	–	CC(C)c1csc(CNC(=O)c2cccn2Cc2ccncc2)n1 [Compound A117, N-((4-isopropylthiazol-2-yl)methyl)-1-(pyridin-4-ylmethyl)-1H-pyrrole-2-carboxamide]	–	–	–	–	–
> 25 µM	> 25 µM	7.88 µM	4.22 µM	3.53 µM	21.9 µM	–	CC(C)OC(C)(C)c1csc(NC(=O)c2cccn2Cc2ccc(C#N)cc2)n1 [Compound A80, 1-(4-cyanobenzyl)-N-(4-(2-isopropoxypropan-2-yl)thiazol-2-yl)-1H-pyrrole-2-carboxamide]	–	–	–	–	–
> 25 µM	> 25 µM	> 25 µM	5.37 µM	4.52 µM	> 25 µM	–	Cc1cc(Cn2cccc2C(=O)Nc2nc(C(C)(C)OC(C)C)cs2)ccn1 [Compound A83, N-(4-(2-isopropoxypropan-2-yl)thiazol-2-yl)-1-((2-methylpyridin-4-yl)methyl)-1H-pyrrole-2-carboxamide]	–	–	–	–	–
> 25 µM	> 25 µM	> 25 µM	> 25 µM	> 25 µM	> 25 µM	–	O=C(Nc1nc2cccnc2s1)c1cccn1Cc1ccncc1 [Compound A121]	–	–	–	–	–
10.3 µM	> 25 µM	21.9 µM	0.526 µM	> 25 µM	14 µM	–	CN(C)C(=O)c1ccc(/C=C/c2csc(NC(=O)c3cccn3Cc3ccncc3)n2)cc1 [Compound A246]	–	–	–	–	–
> 25 µM	> 25 µM	> 25 µM	4.66 µM	> 25 µM	> 25 µM	–	COc1cnc(NC(=O)c2cccn2Cc2ccncc2)s1 [Compound A82]	–	–	–	–	–
> 25 µM	> 25 µM	4.68 µM	3.05 µM	3.1 µM	25 µM	–	CC(C)(C)c1csc(NC(=O)c2cccn2Cc2ccncc2Cl)n1 [Compound A77, N-(4-(tert-butyl)thiazol-2-yl)-1-((3-chloropyridin-4-yl)methyl)-1H-pyrrole-2-carboxamide]	–	–	–	–	–
> 25 µM	> 25 µM	> 25 µM	> 25 µM	> 25 µM	> 25 µM	–	CCc1nc(NC(=O)c2cccn2Cc2cccnc2)sc1C [Compound A131, N-(4-ethyl-5-methylthiazol-2-yl)-1-(pyridin-3-ylmethyl)-1H-pyrrole-2-carboxamide]	–	–	–	–	–
> 25 µM	5.11 µM	0.568 µM	0.153 µM	1.05 µM	> 25 µM	–	O=C(Nc1nc(/C=C/c2ccccc2)cs1)c1cccn1Cc1ccncc1 [Compound A14, 1-(pyridin-4-ylmethyl)-N-(4-styrylthiazol-2-yl)-1H-pyrrole-2-carboxamide]	–	–	–	–	–
15.6 µM	4.2 µM	0.672 µM	0.22 µM	1.58 µM	10.8 µM	–	CO[C@H]1CC[C@H](/C=C/c2csc(NC(=O)c3cccn3Cc3ccncc3)n2)CC1 [Compound A253, N-(4-(2-((1r,4r)-4-methoxycyclohexyl)vinyl)thiazol-2-yl)-1-(pyridin-4-ylmethyl)-1H-pyrrole-2-carboxamide]	–	–	–	–	–
–	–	–	–	–	–	–	CC(C)(C)c1csc(NC(=O)c2cc3cc(Cl)ccc3n2Cc2ccncc2)n1 [Compound B28, N-(4-(tert-butyl)thiazol-2-yl)-5-chloro-1-(pyridin-4-ylmethyl)-1H-indole-2-carboxamide]	> 25 µM	> 25 µM	> 25 µM	> 25 µM	23.4 µM
–	> 25 µM	> 25 µM	> 25 µM	> 25 µM	> 25 µM	–	CC(C)OC(C)(C)c1csc(NC(=O)[C@@H]2CCCN2Cc2ccncc2)n1 [Compound A130, (S)-N-(4-(2-isopropoxypropan-2-yl)thiazol-2-yl)-1-(pyridin-4-ylmethyl)pyrrolidine-2-carboxamide]	–	–	–	–	–
–	–	–	–	–	–	–	CCc1nc(NC(=O)c2cc3cc(Cl)ccc3n2Cc2ccncc2)sc1C [Compound B29, 5-chloro-N-(4-ethyl-5-methylthiazol-2-yl)-1-(pyridin-4-ylmethyl)-1H-indole-2-carboxamide]	> 25 µM	> 25 µM	> 25 µM	> 25 µM	> 25 µM
